The results in this text go back to patent US11401255B2, “Small molecule activators of Parkin enzyme function” (Mayo Foundation for Medical Education and Research, priority 2016, dated 2022).

One data set addresses Parkin (Homo sapiens (Human), UniProt O60260). Kind of data set: Primary HCI assay of EGFP-Parkin translocation to mitochondria. The data set is classed as cell-based. The following applies: primary assay screen, Parkin translocation to mitochondria. The procedure: GFP-Parkin is localized throughout the cell in unstressed cells but translocates to mitochondria when the mitochondrial membrane potential is compromised and Parkin is activated. After automated image acquisition of fixed cells, regions of interest of each cell were defined with the analysis software. […] To quantify the relocalization of GFP-Parkin to mitochondria, the ratio of the GFP intensity in the cytoplasm and the nucleus was calculated. Under non-stressed condition, this ratio is about 1. FIG. 1B is a bar graph showing the results of the assay with a Z factor (Z′) of 0.5-0.8, which indicates its robustness and usefulness as a screening assay. Validation of the assay has been performed by using PINK1 siRNA.
FIGS. 2A-2C show a primary HCI assay with CCCP titration. FIG. 2A is a graphic description of the primary HCI assay of EGFP-Parkin translocation. HeLa cells stably expressing GFP-Parkin were seeded with 1350 cells per well in 384-well plates (25 μL per well). Cells were allowed to attach overnight before drug was added 2× concentrated in a volume of 25 μL in triplicates. After 2 h, 50 μL of a 2× low-dose CCCP (yielding a final concentration of 3.5 μM CCCP) was added to all wells that contained test compounds and for the negative control. For positive control wells, CCCP was added in a final concentration of 10 μM. After 2 h incubation with CCCP, cells were fixed and labeled with Hoechst for at least 1 h before cells were imaged. […] Values were being normalized to negative and positive control values and plotted as % activity. Z′ was calculated for quality control. Positive controls were indicated in green, negative control wells in red. Drugs that lead to more than 50% activity are considered positive (blue).
Functional testing of compounds was performed using an established primary HCI assay for Parkin translocation, which correlates well with enzymatic activation (Fiesel et al., J. Cell Science (2014) 127:3488-3504; Fiesel et al., Human Mutation (2015) 36:774-786). In brief, 1400 HeLa cells stably expressing EGFP-Parkin were seeded into optical 384-well plates (Greiner BioOne) in 25 μL media and allowed to adhere for 40 h. Compounds 1, 2, 3, 4, and 31 were added to the plate as 2× concentrated stocks. Control wells were treated with equal volume of DMSO in media. After 2 h, unless otherwise stated, CCCP was added as 2× concentrated stock with a final assay concentration of 10 μM for PC wells and 3.5 μM for test and NC wells. This low dose of CCCP was experimentally determined by a dose response curve of CCCP to result in no Parkin translocation (FIG. 13). After another 2 h, cells were fixed in 4% paraformaldehyde for 10 min and stained with Hoechst 33342 (1:5000, Invitrogen) before plates were imaged and analyzed.
Image acquisition was performed on a BD Pathway 855 with the Attovision V1.6 software (BD Biosciences). Wells were imaged with a 20× objective using a 2×2 montage with laser autofocus. EGFP exposure time was 0.0175 sec, Hoechst 0.0015 sec. Raw images were not processed and directly analyzed using a build-in ‘RING—2 output’ algorithm. Values were exported and normalized using JMP 11 software and transferred to GraphPad Prism 7 for quality control, graphing and curve fitting for DRCs with a variable slope using four parameters. […] Values were normalized to both PC and NC values from 24 wells each per plate and the Z′ score was calculated. Plates with Z′<0.5 were repeated.

Another data set has as its target FLAG-Parkin C431S (Homo sapiens (Human), UniProt O60260, C431S). Kind of data set: Ub-charging of FLAG-Parkin C431S (western blot). Type of data set: cell-based. To be noted: 1 μM, 2 h before 3.5 μM CCCP (FIG. 21). The procedure: Another measure of Parkin activation is Ub charging of Parkin. Parkin receives Ub from an E2 enzyme to transfer it to a substrate protein. The Ub is bound by Parkin C431 in an unstable thioester bond. A serine substitution of this amino acid (C431S) leads to a stable oxyester bond. The bound Ub can then be visualized as a band shift in Western blot experiments. HeLa 3×FLAG-Parkin C431S cells were seeded in 12-well plates and allowed to attach overnight. Cells were treated with 5 μM (top panels) or 1 μM (bottom panels) of Compounds 1, 2, 3, 4, and 31 2 h before adding CCCP for another 2 h. 10 μM CCCP was added to positive control (PC) wells whereas all other samples received a low dose concentration of 3.5 μM. Cells were harvested in boiling hot SDS lysis buffer and protein concentration was determined by BCA. Samples were split and left either untreated or were treated with NaOH as indicated. Samples were run on an 8-16% Tris-Glycine gel, blotted onto membranes and probed with antibodies against Flag and pS65-Ub. GAPDH served as a loading control. Band shift indicates Parkin binding to Ubiquitin, which is cleavable with NaOH.
Cells were harvested in RIPA buffer or NP-40 lysis buffer containing protease and phosphatase inhibitors (Complete and PhosStop, Roche Applied Science) with the exception of Parkin Ub charging experiments where preheated (95° C.) SDS lysis buffer (50 mM Tris pH 7.6, 150 mM NaCl, 1% SDS) was used. Concentration of cell lysates was determined with bicinchoninic acid (Pierce Biotechnology). For Parkin Ub charging experiments, aliquots of lysates were treated with […] for 1 h at 37° C. pH was neutralized with equinormal HCl.
Protein was subjected to SDS-PAGE using 4-20% or 8-16% Tris-Glycine gels (Invitrogen) and transferred onto polyvinylidene fluoride (PVDF) (Millipore). Membranes were incubated with primary antibodies overnight at 4° C. followed by HRP-conjugated secondary antibodies (1:10,000; Jackson ImmunoResearch Laboratories). Primary antibodies used: beta III tubulin (rabbit, 1:1000, CST, #5568, CST), FLAG (mouse, 1:250,000, Sigma, F3165), GAPDH (mouse, 1:100,000-500,000, Meridian Life science, H86504M), GST (1:10,000, Sigma, G7781), MFN1 (mouse, 1:5,000, Abcam, ab57602), MFN2 (mouse, 1:5,000, Abcam, ab56889), Parkin (mouse, 1:2,000, Cell Signaling, #4211), pSer65-Ub (rabbit, 1:15,000, in-house (Fiesel et al., EMBO Reports (2015) 16:1114-30; Fiesel et al., (2015) Autophagy 11:2125-2126)), TOM70 (rabbit, 1:5,000, Proteintech, 14528-1-AP), UBE2L3 (rabbit, 1:10,000, ProteinTech, 14415-1-AP), VDAC1 (mouse, 1:5,000, Abcam, ab14734), vinculin (mouse, 1:100,000, Sigma, V9131).
HeLa 3×FLAG-Parkin C431S cells were seeded in 6-well plates and allowed to attach overnight. Cells were treated with […] of compounds 5, 21-28, 32, 33, or 43-46 2 h before adding CCCP for another 2 h. 10 VM CCCP was added to positive control (PC) wells, 3.5 μM CCCP to compound (+) and negative control (NC) wells. […] Cells were harvested in boiling hot SDS lysis buffer and protein concentration was determined by BCA. Samples were split and left either untreated or were treated with NaOH as indicated. Samples were run on an 8-16% Tris-Glycine gel, blotted onto membranes and probed with antibodies against Flag. Vinculin served as a loading control. Band shift indicates Parkin binding to Ubiquitin, which is cleavable with NaOH (FIG. 21).
(In general: A western blot detects proteins with antibodies after separation by electrophoresis.)

The nature of data set [1]: Caco-2 A-B permeability assay. The following applies: human, Caco-2, pH 7.4, A-B. The data set is classed as in vitro ADME. The procedure: (§1) Caco-2 cells were cultivated in 75 cm^2 flasks to 80-90% of confluence according to the ATCC and Millipore recommendations (Millipore protocol note PC1060EN00P) in a humidified atmosphere at 37° C. and 5% CO2. Cells were detached with Trypsin/EDTA solution and re-suspended in the cell culture medium to a final concentration of 2×10^5 cells/mL. 500 μL of the cell suspension was added to each well of an HTS 24-multiwell insert system and 35 mL of prewarmed complete medium was added to the feeder tray. Caco-2 cells were incubated in the multiwell insert system for 10 days before the transport experiments. The medium in the filter plate and feeder tray was changed every other day. After 10 days of cell growth, the integrity of the monolayer was verified by measuring the transepithelial electrical resistance (TEER) for every well using the Millicell-ERS system ohm meter. […] The 24-well insert plate was removed from its feeder plate and placed in a new sterile 24-well transport analysis plate. The medium was aspirated and inserts washed with PBS.
(§2) To determine the rate of drug transport in apical (A) to basolateral (B) direction, 300 μL of the test compound solution in buffer (HBSS, 5.6 mM glucose, 10 mM HEPES, pH=7.4) was added into the filter wells and 1000 μL of the same buffer was added to wells in the transport analysis plate. The plates were incubated for 90 min. at 37° C. with shaking at 50 rpm. 75 μL aliquots were taken from the apical and basolateral compartment for LC-MS/MS analysis. All samples for LC-MS/MS analysis were extracted by acetonitrile (×2 volume) followed by protein sedimentation by centrifuging at 10000 rpm for 10 minutes. Supernatants were analyzed using the HPLC system coupled with a tandem mass spectrometer.
(§3) The apparent permeability (Papp) was calculated for the Caco-2 permeability assay using the following equation: Papp=(VA/((Area)×(Time))×([drug]acc/[drug]initial,d), where: […]

A further data set has as its system Caco-2 cells. In words: Caco-2 A-B permeability assay. The data set is classed as in vitro ADME. To be noted: A-B, 90 min, pH=7.4; hydrochloride. The procedure:
as §1, §2, §3

The target of a further data set is CYP 2D6 (Homo sapiens (Human), UniProt P10635). Kind of data set: P450-Glo CYP450 inhibition, CYP 2D6. As to the method: CYP450 inhibition profiling provides valuable information regarding any possible drug-drug interactions for a test compound.
All experiments were performed using P450-Glo™ Assay Systems (Promega) in accordance with the manufacturer's protocols. The P450-Glo™ Assays provide a luminescent readout-based method for measuring cytochrome P450 activity. A conventional cytochrome P450 reaction was performed by incubating the cytochrome P450 and a luminogenic cytochrome P450 substrate. The substrates in the P450-Glo™ assays are derivatives of beetle luciferin. The derivatives themselves are not substrates for luciferase but are converted by cytochrome P450s to luciferin, which in turn reacts with luciferase to produce light. The amount of light produced was directly proportional to cytochrome P450 activity. All test points were performed in quadruplicates. Control membranes (without CYPs) represented the Negative control (baseline).
The following reference compounds were used to assess CYP inhibition: […]

Structures are written as SMILES. Structures can show the parent of a compound that is named as a salt. Where two headings read alike, the source gives them in different places.

Sequence of CYP 2D6 (P10635 whole entry): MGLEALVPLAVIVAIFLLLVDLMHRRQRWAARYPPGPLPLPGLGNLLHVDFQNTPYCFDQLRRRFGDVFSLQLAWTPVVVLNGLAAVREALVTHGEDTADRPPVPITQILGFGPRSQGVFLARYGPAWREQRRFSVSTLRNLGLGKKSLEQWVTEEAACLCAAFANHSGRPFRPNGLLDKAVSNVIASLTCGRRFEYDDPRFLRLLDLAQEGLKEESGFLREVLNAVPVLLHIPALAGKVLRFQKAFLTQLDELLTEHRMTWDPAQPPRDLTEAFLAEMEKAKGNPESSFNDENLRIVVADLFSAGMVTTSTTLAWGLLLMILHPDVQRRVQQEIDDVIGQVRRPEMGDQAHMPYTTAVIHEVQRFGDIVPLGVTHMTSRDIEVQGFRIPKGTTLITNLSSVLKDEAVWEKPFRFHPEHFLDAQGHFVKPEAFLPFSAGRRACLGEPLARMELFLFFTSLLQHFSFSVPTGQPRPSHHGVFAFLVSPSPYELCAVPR

Usually EC50 stands for the concentration needed to bring the measured effect to its halfway point. Low values mean a more potent agent, high ones a less potent agent. Take `Cc1nc(NC(=O)Cn2cnc3c2CCCC3)ccc1-c1ccccc1` [Compound 5]: the EC50 on Parkin worked out at 63 nM. The “Ub-charging of FLAG-Parkin C431S (WB)” value at FLAG-Parkin C431S is recorded as “enhanced Ub-charging”.
The matching figures for `c1ccc(CN2CCCN(c3ncnc4c3CCCCC4)CC2)cc1` [Compound 32]: 36 nM and “enhanced Ub-charging”.
The corresponding values for `c1ccc(CN2CCCN(c3ncnc4c3CCCC4)CC2)cc1` [Compound 33] are 111 nM and “enhanced Ub-charging”.
For the compound `CC(C)NCC(O)COc1cccc2ccccc12` (stereo not shown) [Propranolol, propranolol hydrochloride, reference compound], the Papp at 90 min in data set [1] (read-out: Permeability (individual replicates 1, 2)) came to 23 ×10⁻⁶ cm/s; in data set [1] (read-out: Permeability Mean), 21.8 ×10⁻⁶ cm/s. Moreover, the “Permeability (individual replicates 1, 2)” value in the data set with Caco-2 cells was 20.6 10^−6 cm/s.
Usually inhibition stands for the relative decrease from the control value, in per cent. On to `C=C[C@H]1C[N@@]2CC[C@H]1C[C@@H]2[C@@H](O)c1ccnc2ccc(OC)cc12` [quinidine, reference compound], for which, on CYP 2D6, the inhibition at 1 µM amounted to 88.4%.
